Here are results for 14 molecules from patent US20230212156A1 (FERMION OY, priority 2020, published 2023).

For data set [1] the following is noted: 10 g sample, 3 min sieving; for Particle size distribution (Alpine AJS) <425 μm: mass fraction passing 425 μm sieve; for Particle size distribution (Alpine AJS) >75 μm: mass fraction retained on 75 μm sieve; for Particle size distribution (Alpine AJS) >180 μm: mass fraction retained on 180 μm sieve. An excerpt: In general, the method for carrying out an air jet sieving procedure is as follows.
Together with sample material the sieve is placed on the unit and covered with a lid. A powerful industrial vacuum cleaner generates a strong jet of air which disperses the particles on the sieve through the slotted nozzle rotating below the sieve mesh. Thus the particles are dispersed with each rotation and are distributed over the complete sieve surface. The jet of air causes a continuous new orientation of the particles on the sieve surface. Particles with sizes smaller than the sieve apertures are sucked in by the vacuum cleaner. When using sieves of certain height (e.g. 25 mm height), the inflowing air causes the particles to impact on the lid, thereby helping to destroy agglomerates. The material remaining on the sieve can then be weighed, allowing the amount of the sample having a particle size greater than the aperture of the mesh to be calculated.
Preferably, the sample amount is representative of the sample, and has a mass of at least 10 g. Thus, in one embodiment, the sample amount is 10 g. In this or any other embodiment, sieving time is suitably 3 minutes.
The sieves for use in the air jet sieving method are woven metal sieves. The technical requirements of the test sieves are specified in ISO standard ISO 3310-1:2016 Test sieves—Technical requirements and testing—Part 1: Test sieves of metal wire cloth. The sieves are also according to standard ASTM E11.
The sieving is done according to the process described in Ph.Eur. 2.9.38 Particle-size distribution estimation by analytical sieving. Air jet sieving method is used to determine the mass distribution of particles.
Sieving was done using woven metal sieves according to ISO standard ISO 3310-1:2016 (Test sieves—Technical requirements and testing—Part 1: Test sieves of metal wire cloth). The sieving was done using a single sieve at a time using the appropriate sieve size (75 gm, 180 gm, 425 gm). The sieving was done according to the process described in Ph.Eur. 2.9.38 (Particle-size distribution estimation by analytical sieving).
The sieve was tared. 10 grams of the particle mixture was weighed on the sieve. The sieve was placed on air jet sieve unit and covered with a lid. The vacuum cleaner was switched on, thereby creating a vacuum inside the sieving chamber. The sieving under vacuum was continued for 3 minutes. The finest particles were pulled downwards trough the sieve and the coarse particles remained on the sieve. At the end of the sieving process, the sieve was weighed and the mass of particles remained on the sieve was determined. The sieving process was done as described above using one sieve at a time until the particle size distribution was determined.

The nature of data set [2]: Particle size distribution by laser light diffraction (Beckman Coulter LS 230). The following applies: for Particle size / particle size distribution by laser light diffraction, in words: based on FIGS. 1-4; for Dv10 / Dv50 / Dv90: volume weighted, Fraunhofer model, suspended in glycerol and water (1:1), 100 mg sample.
The conditions of data set [3]: alcohols, esters, ethers and hydrocarbons; cited from earlier work.

With `O=C1CN(/N=C/c2ccc([N+](=O)[O-])o2)C(=O)N1` [Example 1, nitrofurantoin anhydrate], in data set [1], the “Particle size distribution (Alpine AJS) <425 μm” value was determined as 96%, the “Particle size distribution (Alpine AJS) >75 μm” value is 99% and the “Particle size distribution (Alpine AJS) >180 μm” value came to 76%.

Regarding `O=C1CN(/N=C/c2ccc([N+](=O)[O-])o2)C(=O)N1` [Example 2a, nitrofurantoin anhydrate], in data set [1], the “Particle size distribution (Alpine AJS) <425 μm” value amounted to 95%, the “Particle size distribution (Alpine AJS) >75 μm” value is listed as 98% and the “Particle size distribution (Alpine AJS) >180 μm” value was found to be 72%. In data set [2], the “Particle size / particle size distribution by laser light diffraction, in words” value was “narrow particle size distribution”; the Dv10 stood at 126 μm; the Dv50 worked out at 264 μm; the Dv90 is listed as 448 μm.

Consider `O=C1CN(/N=C/c2ccc([N+](=O)[O-])o2)C(=O)N1` [Example 5b, nitrofurantoin anhydrate], for which, in data set [1], the “Particle size distribution (Alpine AJS) <425 μm” value was found to be 98%, the “Particle size distribution (Alpine AJS) >75 μm” value is on record as 95% and the “Particle size distribution (Alpine AJS) >180 μm” value was 52%.

`O=C1CN(/N=C/c2ccc([N+](=O)[O-])o2)C(=O)N1` [Example 5c, nitrofurantoin anhydrate]: in data set [1], the “Particle size distribution (Alpine AJS) <425 μm” value amounted to 99%, the “Particle size distribution (Alpine AJS) >75 μm” value is 93% and the “Particle size distribution (Alpine AJS) >180 μm” value was 51%.

Take `O=C1CN(/N=C/c2ccc([N+](=O)[O-])o2)C(=O)N1` [Example 2c, nitrofurantoin anhydrate]: in data set [1], the “Particle size distribution (Alpine AJS) <425 μm” value amounted to 95%, the “Particle size distribution (Alpine AJS) >75 μm” value is listed as 98% and the “Particle size distribution (Alpine AJS) >180 μm” value is on record as 70%. In data set [2], the “Particle size / particle size distribution by laser light diffraction, in words” value is “narrow particle size distribution”; the Dv10 came out at 118 μm; the Dv50 turned out to be 252 μm; the Dv90 came to 466 μm.

As to `O=C1CN(/N=C/c2ccc([N+](=O)[O-])o2)C(=O)N1` [Example 2b, nitrofurantoin anhydrate], in data set [1], the “Particle size distribution (Alpine AJS) <425 μm” value came to 98%, the “Particle size distribution (Alpine AJS) >75 μm” value was 98% and the “Particle size distribution (Alpine AJS) >180 μm” value was 67%. In data set [2], the “Particle size / particle size distribution by laser light diffraction, in words” value is “narrow particle size distribution”; the Dv10 was determined as 163 μm; the Dv50 came out at 348 μm; the Dv90 is listed as 667 μm.

Take `O=C1CN(/N=C/c2ccc([N+](=O)[O-])o2)C(=O)N1` [Example 4, nitrofurantoin anhydrate]: in data set [1], the “Particle size distribution (Alpine AJS) <425 μm” value amounted to 98%, the “Particle size distribution (Alpine AJS) >75 μm” value is 99% and the “Particle size distribution (Alpine AJS) >180 μm” value is 80%.

As for `O=C1CN(/N=C/c2ccc([N+](=O)[O-])o2)C(=O)N1` [Comparison Example 9, nitrofurantoin anhydrate, reference compound], in data set [1], the “Particle size distribution (Alpine AJS) <425 μm” value is given as 27%, the “Particle size distribution (Alpine AJS) >75 μm” value is 99% and the “Particle size distribution (Alpine AJS) >180 μm” value is on record as 89%.

`O=C1CN(/N=C/c2ccc([N+](=O)[O-])o2)C(=O)N1` [Comparison example 8, nitrofurantoin anhydrate, reference compound]: the “Particle size / particle size distribution by laser light diffraction, in words” value in data set [2] is on record as “smaller than in example 2”.

With `O=C1CN(/N=C/c2ccc([N+](=O)[O-])o2)C(=O)N1` [Nitrofurantoin anhydrate, 1-[[(5-nitro-2-furanyl)methylene]amino]-2,4-imidazolidinedione], the “Solubility in most organic solvents” value in data set [3] is “sparingly soluble”.

Regarding `O=C1CN(/N=C/c2ccc([N+](=O)[O-])o2)C(=O)N1` [Example 7, nitrofurantoin anhydrate], in data set [1], the “Particle size distribution (Alpine AJS) <425 μm” value came to 99%, the “Particle size distribution (Alpine AJS) >75 μm” value is reported as 94% and the “Particle size distribution (Alpine AJS) >180 μm” value is listed as 36%. Also, the “Particle size / particle size distribution by laser light diffraction, in words” value in data set [2] was “smaller than in example 2”.

Take `O=C1CN(/N=C/c2ccc([N+](=O)[O-])o2)C(=O)N1` [Example 6, nitrofurantoin anhydrate]: in data set [1], the “Particle size distribution (Alpine AJS) <425 μm” value was 98%, the “Particle size distribution (Alpine AJS) >75 μm” value amounted to 87% and the “Particle size distribution (Alpine AJS) >180 μm” value is 10%. Besides, in data set [2], the “Particle size / particle size distribution by laser light diffraction, in words” value is listed as “smaller than in example 2”.

In the case of `O=C1CN(/N=C/c2ccc([N+](=O)[O-])o2)C(=O)N1` [Example 5a, nitrofurantoin anhydrate], in data set [1], the “Particle size distribution (Alpine AJS) <425 μm” value worked out at 97%, the “Particle size distribution (Alpine AJS) >75 μm” value was found to be 96% and the “Particle size distribution (Alpine AJS) >180 μm” value is on record as 51%.

With `O=C1CN(/N=C/c2ccc([N+](=O)[O-])o2)C(=O)N1` [Example 3, nitrofurantoin anhydrate], in data set [1], the “Particle size distribution (Alpine AJS) <425 μm” value is 98%, the “Particle size distribution (Alpine AJS) >75 μm” value stood at 97% and the “Particle size distribution (Alpine AJS) >180 μm” value was 68%.
